Source: PubChem BioAssay (NCI)
Values joined by “and” are separate entries in the source; they are usually repeats but may differ in a detail not shown here. Equal values may be shown once.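 Step 1: Grow cells in 96-well plates. Step 2: Expose to compound for 48 hours at 5 concentrations. Step 3: Interpolate endpoints linearly; if unreached, use highest concentration. GI50 is the concentration that inhibits growth by half. TGI: concentration producing complete growth inhibition.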

What was measured:
Experiment in all cases: growth of human tumour cells (NCI), 48 h
MOLT-4 leukemia = test system: MOLT-4 leukemia
EKVX NSCLC = test system: EKVX NSCLC
OVCAR-3 ovarian = test system: OVCAR-3 ovarian
TK-10 renal = test system: TK-10 renal
LOX IMVI melanoma = test system: LOX IMVI melanoma
NCI-H23 lung = test system: NCI-H23 lung
SF-539 CNS = test system: SF-539 CNS
U251 CNS = test system: U251 CNS
A549 NSCLC = test system: A549 NSCLC
SR leukemia = test system: SR leukemia

Compound | GI50 (MOLT-4 leukemia) [µM] | TGI (MOLT-4 leukemia) [µM] | GI50 (EKVX NSCLC) [µM] | TGI (EKVX NSCLC) [µM] | GI50 (OVCAR-3 ovarian) [µM] | TGI (OVCAR-3 ovarian) | GI50 (TK-10 renal) | TGI (TK-10 renal) [µM] | GI50 (LOX IMVI melanoma) [µM] | TGI (LOX IMVI melanoma) | GI50 (NCI-H23 lung) [µM] | TGI (NCI-H23 lung) [µM] | GI50 (SF-539 CNS) [µM] | TGI (SF-539 CNS) [µM] | GI50 (U251 CNS) [µM] | TGI (U251 CNS) [µM] | GI50 (A549 NSCLC) [µM] | TGI (A549 NSCLC) [µM] | TGI (SR leukemia) [µM] | GI50 (SR leukemia) [µM]
C#CCN(Cc1nc2cc(C(F)(F)F)ccc2nc1-c1ccccc1)c1ccc(F)cc1 | 36.5 | > 100 | 23.1 | 66.2 | 29.8 | > 100 µM | 19.2 µM | 59 | 30.5 | 97.8 µM | > 100 | > 100 | 37.4 | > 100 | 38 | > 100 | 20.4 | 60.9 | – | –
CCC(=O)Nc1ncnc2ncn(C(=O)CC)c12 | – | > 100 | – | > 100 | – | > 100 µM | – | > 100 | – | > 100 µM | – | > 100 | – | – | – | > 100 | – | > 100 | > 100 | –
OCCCCCNc1ccnc2cc(Cl)ccc12 | – | > 100 | – | > 100 | – | > 100 µM | – | – | – | – | – | > 100 | – | > 100 | – | > 100 | – | > 100 | 40.8 | –
COc1ccc2c(c1OC)C(C=C(c1ccccc1)c1ccccc1)CN(C)C2 (configuration not stated) | – | 64.7 | – | > 100 | – | 59.9 µM | – | 76.1 | – | – | – | 63.1 | – | 56.6 | – | 57.3 | – | 88.2 | – | –
CSC1SCC2C(=O)N(C)C(C(C)C)C(=O)OCC(NC(=O)c3cnc4ccccc4n3)C(=O)NC(C)C(=O)N(C)C1C(=O)N(C)C(C(C)C)C(=O)OCC(NC(=O)c1cnc3ccccc3n1)C(=O)NC(C)C(=O)N2C (configuration not stated) | < 0.001 | – | < 0.001 | – | < 0.001 | – | < 0.001 µM and 0.0075 µM | – | < 0.001 | – | < 0.001 | – | < 0.001 | – | < 0.001 | – | < 0.001 | – | – | –
COc1c(Cl)[c]([Hg][O]C(C)=O)c(NCC(C)=O)c(OC)[c]1[Hg][O]C(C)=O | 17.1 | 48.5 | 27.2 | 65.2 | 10.2 | 21.8 µM | 14.3 µM | 27.7 | 33.4 | > 100 µM | 11.2 | 28.8 | 2.92 | 13.3 | 10 | 21.9 | 81.6 | > 100 | – | –
CCCCCCC(O)C(O)CCC(O)C1CCC(CCCCC(O)CC2=CC(C)OC2=O)O1 (configuration not stated) | 13.4 | 43.9 | 0.291 | 12 | 13.7 | 5.22 µM and 28.7 µM | 22.3 µM | > 100 | 4.48 | 5.02 µM and 27.7 µM | 2.86 | 40.1 | > 100 | > 100 | 15.1 | > 100 | 10.6 | 35.3 | – | –
Cc1nc2ccccc2c(/C=C/c2ccccc2)c1C(=O)/C=C/c1ccccc1 | – | – | 1.75 | 3.28 | – | – | 2.58 µM | 6.81 | 1.77 | 3.19 µM | – | – | 1.76 | 3.19 | 1.57 | 2.93 | 2.29 | 6.06 | > 100 | 1.78
CCCCCC(=C/c1ccccc1)/C=N/N=C(N)N | 1.53 | 3.51 | 4.03 | 19.1 | 1.27 | 2.56 µM | 1.75 µM | 3.32 | 1.44 | 3.02 µM | 1.47 | 3.12 | 1.95 | 3.71 | 1.7 | 3.18 | 1.73 | 3.23 | – | –
CCC(C)(C)NS(=O)(=O)c1ccccc1 | – | > 100 | – | > 100 | – | > 100 µM | – | > 100 | – | – | – | > 100 | – | > 100 | – | > 100 | – | > 100 | – | –
CC1(C)Oc2ccccc2[N+]([O-])=C1c1ccccc1 | – | > 100 | – | – | – | > 100 µM | – | – | – | – | – | > 100 | – | > 100 | – | > 100 | – | > 100 | > 100 | –
Cc1nc(-n2nc(-c3ccccc3)cc2-c2ccccc2)sc1C(=O)/C=C/c1ccc(Cl)cc1 | – | 41 | – | > 100 | – | 35.6 µM | – | > 100 | – | 27.9 µM | – | 34 | – | 27.4 | – | 36.9 | – | 64.9 | – | –
C/C(=N\NS(=O)(=O)c1c(C)cc(C)cc1C)c1ccc[n+]([O-])n1 | – | 37 | – | 26 | – | 25.3 µM | – | – | – | – | – | 34 | – | 27.7 | – | > 100 | – | > 100 | 57.7 | –
COc1ccc(C[C@H]2NC[C@H](O)[C@H]2OC(C)=O)cc1 | – | 0.0642 | – | 0.344 | – | 0.335 µM | – | 0.397 | – | 0.0409 µM | – | 0.52 | – | 0.14 | – | 2.02 | 0.0413 | 3.48 | – | –
